Positions count from the first letter of the chain named.
How the values were obtained:
Assay type in all cases: cell-based
hTRPV4 = biological target: T1, hTRPV4 (Homo sapiens, UniProt Q9HBA0); assay: Whole-cell patch-clamp of TRPV4 currents activated by GSK1016790A in HEK293 cells; settings: flopropione 100 μM, GSK1016790A 0.1 μM
T1 construct: expressed in transfected cells; host or cells: HEK293
Experimental: (§1) HEK293 cells were cultured in Dulbecco’s modified Eagle’s medium (DMEM, Gibco) containing 4.5 g/L D-glucose supplemented with 10% fetal bovine serum based at 37 °C with 5% CO2. For whole-cell patch-clamp recordings, cells were grown in glass coverslips for 24 h before transient transfections with 3000 ng cDNAs of hTRPV3 (gene accession number BC104866.1), hTRPV1 (accession number NM_080704.3), mTRPV2 (accession number NM_011706.2), hTRPV4 (accession number NM_021625.5), hTRPA1 (accession number NM_007332.3) and hTRPM8 (accession number NM_024080.5) into HEK293 cells grown in a 35-mm cell culture dish using Lipofectamine 2000 (Invitrogen). Cells were used 18 ∼ 24 h after transfection. All WT or mutant hTRPV3 plasmids were validated by DNA sequencing.
(§2) Whole-cell patch clamp recordings of wild-type and mutants were carried out at room temperature using the HEKA EPC10 amplifier powered by PatchMaster software (HEKA) or MultiClamp 700B amplifier driven by Clampex 11.0.3 software. The borosilicate glass pipettes were pulled and fire-polished to 3∼6 MΩ using a DMZ universal electrode puller (Zeitz-Instruments, GmbH). Pipette solution and bath solution both contained (in mM): 130 NaCl, three HEPES, and 0.2 EDTA (pH = 7.4). Cell membrane potential was held at 0 mV, currents were recorded at a voltage ramp from −100 to +100 mV for 500-ms and analyzed at ±80 mV.

hTRPV3 R509A mutant = biological target: T2, hTRPV3 R509A mutant (Homo sapiens, UniProt Q8NET8, R509A); assay: Whole-cell recordings of TRPV3 R509A mutant; settings: 100 μM flopropione, 2-APB
T2 construct: expressed in transfected cells; host or cells: HEK293
T2 sequence (Q8NET8 1-790 R509A): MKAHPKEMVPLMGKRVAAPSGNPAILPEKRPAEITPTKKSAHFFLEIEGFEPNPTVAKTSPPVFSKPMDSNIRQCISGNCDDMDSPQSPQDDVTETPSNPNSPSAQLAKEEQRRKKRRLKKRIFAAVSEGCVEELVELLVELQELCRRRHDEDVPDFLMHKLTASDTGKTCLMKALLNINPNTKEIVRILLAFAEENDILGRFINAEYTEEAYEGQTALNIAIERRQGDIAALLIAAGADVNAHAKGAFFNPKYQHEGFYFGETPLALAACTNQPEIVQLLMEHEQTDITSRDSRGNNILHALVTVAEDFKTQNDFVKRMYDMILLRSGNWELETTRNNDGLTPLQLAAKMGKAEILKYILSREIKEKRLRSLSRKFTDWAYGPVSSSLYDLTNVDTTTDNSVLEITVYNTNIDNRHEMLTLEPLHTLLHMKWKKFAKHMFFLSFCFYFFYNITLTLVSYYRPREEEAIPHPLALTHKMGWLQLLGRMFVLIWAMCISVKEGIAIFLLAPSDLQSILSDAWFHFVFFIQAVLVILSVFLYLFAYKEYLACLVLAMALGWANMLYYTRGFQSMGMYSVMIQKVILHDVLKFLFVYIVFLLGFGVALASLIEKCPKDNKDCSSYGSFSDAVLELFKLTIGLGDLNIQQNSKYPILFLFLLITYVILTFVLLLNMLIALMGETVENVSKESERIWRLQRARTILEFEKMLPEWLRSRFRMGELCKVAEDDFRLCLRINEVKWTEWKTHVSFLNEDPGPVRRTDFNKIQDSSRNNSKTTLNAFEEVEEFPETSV
Experimental: as §1, §2

hTRPM8 = biological target: T3, hTRPM8 (Homo sapiens, UniProt Q7Z2W7); assay: Whole-cell patch-clamp of TRPM8 currents elicited by menthol in HEK293 cells; settings: flopropione 100 μM, menthol 500 μM
T3 construct: expressed in transfected cells; host or cells: HEK293
Experimental: as §1, §2

hTRPV3 I505A mutant = biological target: T4, hTRPV3 I505A mutant (Homo sapiens, UniProt Q8NET8, I505A); assay: Whole-cell recordings of TRPV3 I505A mutant; settings: 100 μM flopropione, 2-APB
T4 construct: expressed in transfected cells; host or cells: HEK293
T4 sequence (Q8NET8 1-790 I505A): T2 sequence (Q8NET8 1-790 R509A) with I505A, A509R
Experimental: as §1, §2

T1 sequence (Q9HBA0 whole entry): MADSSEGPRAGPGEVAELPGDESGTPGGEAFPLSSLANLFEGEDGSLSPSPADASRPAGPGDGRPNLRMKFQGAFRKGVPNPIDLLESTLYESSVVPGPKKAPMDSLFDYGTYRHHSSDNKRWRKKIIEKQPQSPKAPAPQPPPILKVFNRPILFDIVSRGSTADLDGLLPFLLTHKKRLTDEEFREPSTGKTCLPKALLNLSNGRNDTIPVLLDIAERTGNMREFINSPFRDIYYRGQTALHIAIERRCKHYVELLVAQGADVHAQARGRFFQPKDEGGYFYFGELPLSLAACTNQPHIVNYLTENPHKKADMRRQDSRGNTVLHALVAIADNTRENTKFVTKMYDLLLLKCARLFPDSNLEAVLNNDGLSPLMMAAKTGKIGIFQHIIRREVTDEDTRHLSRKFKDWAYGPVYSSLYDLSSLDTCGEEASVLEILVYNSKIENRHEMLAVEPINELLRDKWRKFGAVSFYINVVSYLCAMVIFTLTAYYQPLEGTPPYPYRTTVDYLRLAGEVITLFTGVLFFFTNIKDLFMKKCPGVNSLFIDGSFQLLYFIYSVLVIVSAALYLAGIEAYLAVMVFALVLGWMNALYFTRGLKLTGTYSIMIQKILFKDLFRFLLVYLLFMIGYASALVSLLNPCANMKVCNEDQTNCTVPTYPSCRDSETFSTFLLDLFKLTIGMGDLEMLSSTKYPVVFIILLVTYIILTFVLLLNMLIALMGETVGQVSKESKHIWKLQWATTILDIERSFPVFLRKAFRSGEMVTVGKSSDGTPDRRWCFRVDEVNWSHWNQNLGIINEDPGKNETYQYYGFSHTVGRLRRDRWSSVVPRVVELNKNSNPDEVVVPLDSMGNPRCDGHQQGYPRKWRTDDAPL
T3 sequence (Q7Z2W7 whole entry): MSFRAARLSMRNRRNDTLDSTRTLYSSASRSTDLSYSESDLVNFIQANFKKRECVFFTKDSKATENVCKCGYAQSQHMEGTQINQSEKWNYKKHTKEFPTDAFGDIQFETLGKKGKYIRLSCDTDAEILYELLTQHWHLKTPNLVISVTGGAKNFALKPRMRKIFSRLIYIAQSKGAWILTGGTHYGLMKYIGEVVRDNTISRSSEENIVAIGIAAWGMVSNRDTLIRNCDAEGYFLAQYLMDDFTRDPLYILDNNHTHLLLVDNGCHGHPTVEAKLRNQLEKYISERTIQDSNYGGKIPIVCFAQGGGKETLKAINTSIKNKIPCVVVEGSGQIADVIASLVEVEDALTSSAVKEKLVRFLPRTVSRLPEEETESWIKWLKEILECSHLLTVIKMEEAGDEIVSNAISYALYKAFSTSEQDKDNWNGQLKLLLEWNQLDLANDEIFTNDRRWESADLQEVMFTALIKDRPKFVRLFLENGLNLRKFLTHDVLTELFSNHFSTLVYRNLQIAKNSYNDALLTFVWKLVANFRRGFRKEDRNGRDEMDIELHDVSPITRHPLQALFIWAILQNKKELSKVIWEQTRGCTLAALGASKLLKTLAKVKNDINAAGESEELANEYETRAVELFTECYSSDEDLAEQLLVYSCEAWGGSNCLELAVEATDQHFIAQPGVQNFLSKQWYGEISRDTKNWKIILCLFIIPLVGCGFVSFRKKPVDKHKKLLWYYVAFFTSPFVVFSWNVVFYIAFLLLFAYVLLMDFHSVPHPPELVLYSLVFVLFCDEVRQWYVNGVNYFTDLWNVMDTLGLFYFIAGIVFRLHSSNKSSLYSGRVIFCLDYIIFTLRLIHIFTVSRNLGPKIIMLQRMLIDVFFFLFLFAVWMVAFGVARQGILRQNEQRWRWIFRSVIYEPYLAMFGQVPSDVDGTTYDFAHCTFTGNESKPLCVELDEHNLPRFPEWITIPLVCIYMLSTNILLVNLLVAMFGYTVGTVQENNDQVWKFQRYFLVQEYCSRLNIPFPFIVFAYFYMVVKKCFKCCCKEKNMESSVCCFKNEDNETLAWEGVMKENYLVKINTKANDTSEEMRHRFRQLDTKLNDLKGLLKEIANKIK

Compound: CCC(=O)c1c(O)cc(O)cc1O [flopropione]
- effect on TRPV4 currents (hTRPV4): no effect
- sensitivity of R509A mutant to flopropione inhibition (hTRPV3 R509A mutant): maintained the sensitivity to flopropione inhibition
- effect on TRPM8 currents (hTRPM8): no effect
- effect of I505 mutation on inhibition by flopropione (hTRPV3 I505A mutant): partially reduced TRPV3 inhibition

Reference: PMC10828444, “Selective inhibition of overactive warmth-sensitive Ca^2+-permeable TRPV3 channels by antispasmodic agent flopropione for alleviation of skin inflammation” (The Journal of Biological Chemistry, 2023)
